Assay results as given in the supplement of paper PMC10307832.

Each cell line was assayed with CC(C)C[C@H](NC(=O)[C@H](CCc1ccccc1)NC(=O)CN1CCOCC1)C(=O)N[C@@H](Cc1ccccc1)C(=O)N[C@@H](CC(C)C)C(=O)[C@@]1(C)CO1 [Carfilzomib] + CC(=O)c1c(C)c2cnc(Nc3ccc(N4CCNCC4)cn3)nc2n(C2CCCC2)c1=O [Palbociclib] (partner 0.5 µM) (assay: relative viability (nuclei count vs DMSO), 5 days (fraction); higher = more cells survive). Settings: first compound 0.1 µM.
Outline: (§1)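 Dosing by pin tool came one day after lung cancer cell lines were seeded in 1536-well plates, using either one drug or a fixed anchor-drug dose plus five library-drug doses (not always all listed) in √10 steps. After 5 days, nuclei were counted on 4× images. Relative viability is treated-well nuclei count divided by vehicle-well nuclei count, and values are medians of duplicate plates.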

Cell Line	relative viability
SW 900	0.186

These cell lines were tested with CC(C)C[C@H](NC(=O)[C@H](CCc1ccccc1)NC(=O)CN1CCOCC1)C(=O)N[C@@H](Cc1ccccc1)C(=O)N[C@@H](CC(C)C)C(=O)[C@@]1(C)CO1 [Carfilzomib] + CC1(C)CCC(c2ccc(Cl)cc2)=C(CN2CCN(c3ccc(C(=O)NS(=O)(=O)c4ccc(N[C@H](CCN5CCOCC5)CSc5ccccc5)c(S(=O)(=O)C(F)(F)F)c4)cc3)CC2)C1 [Navitoclax] (partner 0.5 µM) in the same assay as above. Settings: first compound 0.001 µM.
Outline: as §1

Cell Line	relative viability
201T	1.14
A549	1.17
A-427	0.954
BEN	0.0574
COR-L23	1.1
COR-L 105	0.885
Calu-6	0.885
EBC-1	0.415
EKVX	0.992
EMC-BAC-2	1.15
EPLC-272H	1.07
H3255	0.676
HARA	1.1
HCC-15	0.667
HCC-44	0.94
HCC-78	0.546
HCC-366	1.02
HCC-827	0.983
HOP-62	1.1
IA-LM	0.851
LC-2-ad	0.568
LCLC-97TM1	0.285
LK-2	0.845
NCI-H596	0.906
NCI-H1299	1.08
NCI-H1703	1.13
NCI-H2228	1.06

Same assay, conditions: first compound 0.003162 µM

Cell Line	relative viability
201T	1.23
A549	1.21
A-427	1.01
BEN	0.0653
CAL-12T	0.996
COR-L23	1.14
COR-L 105	0.628
Calu-6	0.997
ChaGo-K-1	1.58
EBC-1	0.288
EKVX	1
EMC-BAC-2	1.21
EPLC-272H	1.15
H3255	0.63
HARA	1.14
HCC-15	0.728
HCC-44	1.01
HCC-78	0.925
HCC-366	0.98
HCC-827	1.05
HOP-62	1.11
IA-LM	0.815
LC-2-ad	0.452
LCLC-97TM1	0.47
LK-2	0.907
NCI-H596	1.04
NCI-H1299	1.05
NCI-H1703	1.17
NCI-H2228	1.56

Same assay, conditions: first compound 0.01 µM

Cell Line	relative viability
201T	1.22
A549	1.24
A-427	1.04
BEN	0.0797
CAL-12T	1.22
COR-L23	0.724
COR-L 105	0.643
Calu-6	0.561
ChaGo-K-1	1.01
EBC-1	0.184
EKVX	1.21
EMC-BAC-2	1.22
EPLC-272H	0.839
H3255	0.663
HARA	1.21
HCC-15	0.762
HCC-44	1
HCC-78	0.748
HCC-366	0.956
HCC-827	1.03
HOP-62	0.887
IA-LM	0.879
LC-2-ad	0.407
LCLC-97TM1	0.478
LK-2	0.879
NCI-H596	1.14
NCI-H1299	1.03
NCI-H1703	0.164
NCI-H2228	0.788

Same assay, conditions: first compound 0.03162 µM

Cell Line	relative viability
201T	1.23
A549	0.0372
A-427	0.644
BEN	0.0533
CAL-12T	0.822
COR-L23	0.0667
COR-L 105	0.353
Calu-6	0.0829
ChaGo-K-1	0.693
EBC-1	0.13
EKVX	0.427
EMC-BAC-2	1.12
EPLC-272H	0.09
H3255	0.37
HARA	0.0941
HCC-15	0.423
HCC-44	0.829
HCC-78	0.503
HCC-366	1.03
HCC-827	0.907
HOP-62	0.167
IA-LM	0.0554
LC-2-ad	0.227
LCLC-97TM1	0.171
LK-2	0.209
NCI-H596	0.353
NCI-H1299	0.887
NCI-H1703	0.151
NCI-H2228	0.699

Same assay, conditions: first compound 0.1 µM

Cell Line	relative viability
201T	1.18
A549	0.0397
A-427	0.113
BEN	0.047
CAL-12T	0.104
COR-L23	0.0704
COR-L 105	0.298
Calu-6	0.0768
ChaGo-K-1	0.385
EBC-1	0.139
EKVX	0.346
EMC-BAC-2	0.527
EPLC-272H	0.0751
H3255	0.151
HARA	0.0841
HCC-15	0.148
HCC-44	0.261
HCC-78	0.179
HCC-366	0.0374
HCC-827	0.369
HOP-62	0.107
IA-LM	0.01
LC-2-ad	0.135
LCLC-97TM1	0.128
LK-2	0.175
NCI-H596	0.153
NCI-H1299	0.195
NCI-H1703	0.102
NCI-H2228	0.0563

Each cell line was assayed with CC(C)C[C@H](NC(=O)[C@H](CCc1ccccc1)NC(=O)CN1CCOCC1)C(=O)N[C@@H](Cc1ccccc1)C(=O)N[C@@H](CC(C)C)C(=O)[C@@]1(C)CO1 [Carfilzomib] + Nc1ncn([C@H]2C[C@H](O)[C@@H](CO)O2)c(=O)n1 [Decitabine] (partner 2 µM) in the same assay as above. Settings: first compound 0.001 µM.
Outline: as §1

Cell Line	relative viability
201T	0.818
A549	0.167
A-427	0.587
ABC-1	1.24
BEN	0.603
COR-L23	0.383
COR-L 105	0.621
ChaGo-K-1	0.476
EKVX	0.371
